Article PMC6100472, “Cyclodextrins: Assessing the Impact of Cavity Size, Occupancy, and Substitutions on Cytotoxicity and Cholesterol Homeostasis” (Molecules : A Journal of Synthetic Chemistry and Natural …, 2018)
Values after ≈ are worked out from the molar mass of the structure shown.

Key:
[1] = test system: isolated human erythrocytes; experiment: In vitro hemolysis test using isolated human erythrocytes; assay type: cell-based
Protocol: Venous blood was taken from healthy volunteers and placed in plastic tubes containing sodium–citrate anti-coagulant. The cell fraction including erythrocytes was separated from the plasma components by centrifugation (2500× g, 10 min, 20 °C), washed three times with phosphate buffered saline (PBS) solution, and re-suspended in the same solution. The erythrocyte count was adjusted to 10^9 per mL under the control of a Laborscale cell analyzer (Medicor, Hungary). The test was performed in standard Eppendorf-type plastic tubes, where the incubation mixture consisted of 1.3 mL of reagent solution containing increasing concentrations of CDs dissolved in PBS, 0.05 mL of erythrocyte suspension containing 5 × 10^7 red blood cells, and 0.05 mL of 3% Na2CO3. After 10 min incubation at 37 °C, samples were mixed and centrifuged at 5000x g. The absorbance of the released hemoglobin in the supernatant was determined at 540 nm spectrophotometrically. As a reference, total (100%) hemolysis was obtained by replacing PBS with distilled water. CD-induced hemolysis was related to this reference value and expressed as percent hemolysis. All of the experiments included at least 10 different concentrations of the test materials in triplicate runs to allow the plotting of dose-effect curves from multi-point determinations, and to calculate EC50 values. In order to investigate the protective effect of plasma components, aliquots of PBS were replaced by 50 µL, 100 µL, and 200 µL of blood plasma in the incubation mixture. Plasma protein concentration was determined by the biuret method.

[2] = test system: primary fibroblast cells from an NPC patient (NPC1 mutant); experiment: Intracellular cholesterol distribution by Filipin III staining; assay type: cell-based, human; conditions: 1 mM, 72 h, NPC1 mutant primary fibroblasts
Protocol: We determined the effects of the CD derivatives on intracellular cholesterol accumulation in primary fibroblast cells derived from an NPC patient using Filipin III, a fluorescent compound that specifically binds to unesterified cholesterol. After treatment with the CD derivatives (1 mM) for 72 h, the cells were examined for the fluorescent intensity of Filipin III using a fluorescence microscope. […] Studies are underway to define the molecular mechanisms by which HPβCD and HPγCD alleviate the cholesterol-trafficking defect. Cells were incubated in medium containing CD derivatives at 1 mM for 72 h. Cells were washed three times with PBS and fixed with 3.7% paraformaldehyde for 30 min at room temperature. After washing with PBS, cells were stained with PBS containing Filipin III (12.5 μg/mL) for 30–45 min at room temperature in the dark. After washing with PBS and applying a mounting medium, cells were analyzed using a Nikon TE2000 widefield microscope (Nikon, Melville, NY, USA).

HEK293T cells = experiment: MTS cell viability assay (CellTiter 96 AQueous One) in HEK293T cells; assay type: cell-based, human; conditions: 10 mM, 24 h
Protocol: (§1) The CD/lipid inclusion complexes were then tested for their ability to reduce the metabolic activity (or cell viability) in HEK293T cells and HeLa cells (Figure 4) using the CellTiter 96 AQueous One Solution Cell Proliferation Assay Kit (Promega). Cells were treated with 10 mM of the free RAMEB, cholesterol-loaded RAMEB, linoleic acid-loaded RAMEB, or β-sitosterol-loaded RAMEB. At 24 h after treatment, a cell viability assay was conducted, and the absorbance at 490 nm was measured to determine the levels of the reaction products that were generated in metabolically active cells. Triton X-100 (TX) was included as a positive control for cytotoxicity. […]
(§2) The effects of CD treatment on cell viability and cytotoxicity were determined using the CellTiter 96 AQueous One Solution Cell Proliferation Assay Kit (Promega) and LDH Cytotoxicity Assay Kit (Thermo Fisher Scientific), respectively. […] The absorbance of the plates was recorded at 490 nm with an xMark microplate absorbance spectrophotometer (Bio-Rad, Hercules, CA, USA). […] Extracellular LDH in the media can be quantified by a coupled enzymatic reaction in which LDH catalyzes the conversion of lactate to pyruvate via nicotinamide adenine dinucleotide (NAD^+) reduction to NADH. Diaphorase then uses NADH to reduce a tetrazolium salt (INT) to a red formazan product that can be measured at 490 nm. […]

HeLa cells = experiment: MTS cell viability assay (CellTiter 96 AQueous One) in HeLa cells; assay type: cell-based, human; conditions: 10 mM, 24 h
Protocol: as §1, §2

[3] = test system: whole blood (erythrocytes); experiment: In vitro hemolysis test in whole blood samples; assay type: cell-based, human; conditions: RBC count 1 × 10^9
Protocol: For these experiments, healthy volunteers with identical main blood groups [A, Rhesus blood factor D (Rh) positive] but differing in their plasma lipid contents were selected. Plasma and cellular blood components were separated from the freshly taken sodium-citrated blood by centrifugation (2500× g, 10 min, 4 °C). The sedimented composite cellular fraction (red and white blood cells, and platelets) was washed with PBS, then re-suspended either in their own original plasma or in the foreign plasma with the identical blood group, resulting in erythrocyte/plasma combinations of normal cholesterol/lipid levels or higher cholesterol/lipid levels. The erythrocyte count was adjusted to 4 × 10^9 per mL in the blood. In this case, hemolysis test mixtures contained 0.04 mL of test solution with increasing concentrations of methyl-β-CD, 0.25 mL of blood, and 0.01 mL of 3% Na2CO3. Incubation and subsequent centrifugation conditions were identical to the above. Aliquots of the supernatant were diluted using PBS (containing 3% Na2CO3), and their hemoglobin content was determined. Again, dose-effect curves were constructed from multi-point determinations of triplicate runs. The levels of cholesterol, high-density lipoprotein (HDL), and triglyceride in plasma were determined by the use of standard laboratory procedures.

[4] = isolated human erythrocytes in PBS, no plasma
[5] = isolated human erythrocytes in PBS, plasma 50 μL
[6] = isolated human erythrocytes in PBS, plasma 100 μL
[7] = isolated human erythrocytes in PBS, plasma 200 μL

Compound | Hemolytic EC50 [1, 4] [µg/mL] | Hemolytic EC50 [1, 5] [µg/mL] | Hemolytic EC50 [1, 6] [µg/mL] | Hemolytic EC50 [1, 7] [µg/mL] | Effect on intracellular cholesterol accumulation (Filipin III fluorescence) [2] | other results
COC[C@H]1O[C@@H]2O[C@H]3[C@H](O)[C@@H](OC)[C@@H](O[C@H]4[C@H](O)[C@@H](OC)[C@@H](O[C@H]5[C@H](O)[C@@H](OC)[C@@H](O[C@H]6[C@H](O)[C@@H](OC)[C@@H](O[C@H]7[C@H](O)[C@@H](OC)[C@@H](O[C@H]8[C@H](O)[C@@H](OC)[C@@H](O[C@H]1[C@H](O)[C@H]2OC)O[C@@H]8COC)O[C@@H]7COC)O[C@@H]6COC)O[C@@H]5COC)O[C@@H]4COC)O[C@@H]3COC [DIMEB-95, Heptakis (2,6-di-O-methyl)-β-cyclodextrin] | 1200 ± 300 | 4700 ± 400 | 6500 ± 600 | 8800 ± 500 | – | –
COC[C@H]1O[C@@H]2O[C@H]3[C@H](OC)[C@@H](OC)[C@@H](O[C@H]4[C@H](OC)[C@@H](OC)[C@@H](O[C@H]5[C@H](OC)[C@@H](OC)[C@@H](O[C@H]6[C@H](OC)[C@@H](OC)[C@@H](O[C@H]7[C@H](OC)[C@@H](OC)[C@@H](O[C@H]8[C@H](OC)[C@@H](OC)[C@@H](O[C@H]1[C@H](OC)[C@H]2OC)O[C@@H]8COC)O[C@@H]7COC)O[C@@H]6COC)O[C@@H]5COC)O[C@@H]4COC)O[C@@H]3COC [TRIMEB, Heptakis (2,3,6-tri-O-methyl)-β-cyclodextrin] | 7300 ± 200 | 11300 ± 300 | 14700 ± 400 | 19000 ± 200 | – | –
Hydroxypropyl-γ-cyclodextrin [HPγCD] | – | – | – | – | reduction in cholesterol accumulation | –
CC(O)COC[C@H]1O[C@@H]2O[C@H]3[C@H](O)[C@@H](O)[C@@H](O[C@H]4[C@H](O)[C@@H](O)[C@@H](O[C@H]5[C@H](O)[C@@H](O)[C@@H](O[C@H]6[C@H](O)[C@@H](O)[C@@H](O[C@H]7[C@H](O)[C@@H](O)[C@@H](O[C@H]8[C@H](O)[C@@H](O)[C@@H](O[C@H]1[C@H](O)[C@H]2O)O[C@@H]8COCC(C)O)O[C@@H]7COCC(C)O)O[C@@H]6COCC(C)O)O[C@@H]5COCC(C)O)O[C@@H]4COCC(C)O)O[C@@H]3COCC(C)O (stereo partly drawn) [HPβCD, Hydroxypropyl-β-cyclodextrin] | – | – | – | – | reduction in cholesterol accumulation | –
Randomly methylated β-cyclodextrin [RAMEB] | 2300 ± 300 | 5200 ± 300 | 7000 ± 400 | 9700 ± 500 | – | Effect on cell viability (metabolic activity) (HEK293T cells): significant reduction in metabolic activity; Effect on cell viability (metabolic activity) (HeLa cells): significant reduction in metabolic activity
COC[C@H]1O[C@@H]2O[C@H]3[C@H](O)[C@@H](OC)[C@@H](O[C@H]4[C@H](O)[C@@H](OC)[C@@H](O[C@H]5[C@H](O)[C@@H](OC)[C@@H](O[C@H]6[C@H](O)[C@@H](OC)[C@@H](O[C@H]7[C@H](O)[C@@H](OC)[C@@H](O[C@H]8[C@H](O)[C@@H](OC)[C@@H](O[C@H]1[C@H](O)[C@H]2OC)O[C@@H]8COC)O[C@@H]7COC)O[C@@H]6COC)O[C@@H]5COC)O[C@@H]4COC)O[C@@H]3COC [DIMEB-50, Heptakis (2,6-di-O-methyl)-β-cyclodextrin] | 1200 ± 200 | 8500 ± 200 | 9400 ± 400 | 11900 ± 300 | – | Hemolytic EC50 ([3]; plasma CHO 2.22 mM, HDL 1.13 mM, TG 0.48 mM): 18000 ± 200 µg/mL; Hemolytic EC50 ([3]; plasma CHO 4.38 mM, HDL 0.58 mM, TG 1.08 mM): 22400 ± 400 µg/mL; EC50DIMEB (hemolytic potency) ([1]; 5 mg/mL BSA (Figure 2)): 1380 µg/mL (≈ 1040 µM); EC50DIMEB (hemolytic potency) ([1]; 10 mg/mL bovine serum albumin (BSA) (Figure 2)): 1530 µg/mL (≈ 1150 µM); EC50DIMEB (hemolytic potency) ([1]; 100-µL plasma resulting in 5 mg/mL protein concentration in the mixture (Figure 2)): 9380 µg/mL; EC50DIMEB (hemolytic potency) ([1]; 200-µL plasma resulting in 10 mg/mL protein concentration in the mixture (Figure 2)): 11960 µg/mL; Hemolytic EC50 ([1]; RBCs-washed, 200 μL plasma added, plasma CHO 0.76 mM, HDL 0.25 mM, TG 0.13 mM, RBC count 5 × 10^7): 12600 ± 200 µg/mL; Hemolytic EC50 ([1]; RBCs-washed, no plasma added, RBC count 5 × 10^7): 1320 ± 100 µg/mL
